{"source": "patent US9080216B2", "about": "“Genetic changes in ATM and ATR/CHEK1 as prognostic indicators in cancer” (University of Pittsburgh-of the CommonWealth System of …, priority 2007, dated 2015)", "assay_type_in_all_cases": "cell-based, human", "key": {"[1]": {"tested_on": "OSCC", "assay": "Cell cycle analysis by flow cytometry after caffeine and irradiation", "details": "following irradiation", "method": "Cell Cycle Analysis by Flow Cytometry. […] These cells were washed with phosphate-buffered saline (PBS), and fixed with 70% ethanol. The cells were then treated with 80 μg/ml RNase A and 50 μg/ml propidium iodide (Invitrogen-Molecular Probes, Carlsbad, Calif.) for 45 min at 37° C. The stained cells were analyzed using a Coulter Epics XL Flow Cytometer in the UPCI Flow Cytometry Facility."}, "[2]": {"tested_on": "UPCI:SCC104", "assay": "Clonogenic cell survival assay", "method": "(§1) Clonogenic Cell Survival Assay. To assess cell survival in response to ionizing radiation, clonogenic survival assays were performed. Two thousand cells were seeded in 60 mm Petri dishes and allowed to adhere overnight. […] The culture medium was replaced at the end of 7 days. Untreated cells cultured in parallel were used to determine relative plating efficiency. After 12 days, the cells were fixed with 70% ethyl alcohol and stained with Giemsa (Sigma, St. Louis, Mo.) and the number of colonies was assessed. A colony was defined as a cluster of ≧50 cells, having formed from a single cell. All experiments were performed in triplicate, and the error reported as one standard deviation from the mean.\nSiRNA Transfection. ATR or CHEK1 inhibitions were carried out using the respective siRNAs for a specific knockout. RNA interference of ATR and CHEK1 was performed using Smartpool ATR and CHEK1 duplexes respectively, obtained from Dharmacon (Lafayette, Colo.). Nonspecific (scrambled) control duplexes (Dharmacon) were used for nonspecific siRNA treatment. The duplexes were reconstituted in 1×DNA-free RNA re-suspension buffer provided by Dharmacon and aliquoted according to the manufacturer's instructions. For transfection, the OSCC cell lines were seeded in 60 mm dishes or T25 flasks and transfected with siRNA duplexes using Lipofectamine 2000 (Invitrogen) according to the manufacturer's instructions. The individual siRNA duplex sequences are enumerated in Appendix B. The final working siRNA concentration achieved was between 90-100 nM. We used cells treated with no vector (untreated), empty vector (mock-treated), cells transfected with a nonspecific siRNA, and a specific ATR or CHEK1 siRNA for all of our experiments. At the end of 48 h post-transfection, appropriate treatments (ionizing radiation or aphidicolin treatment) were carried out as described earlier."}, "[3]": {"tested_on": "UPCI:SCC104", "assay": "Cell cycle analysis by flow cytometry", "details": "1 mM or 5 mM caffeine 1 h prior to 5 Gy IR", "method": "Cell Cycle Analysis by Flow Cytometry. […] These cells were washed with phosphate-buffered saline (PBS), and fixed with 70% ethanol. The cells were then treated with 80 μg/ml RNase A and 50 μg/ml propidium iodide (Invitrogen-Molecular Probes, Carlsbad, Calif.) for 45 min at 37° C. The stained cells were analyzed using a Coulter Epics XL Flow Cytometer in the UPCI Flow Cytometry Facility. SiRNA Transfection. ATR or CHEK1 inhibitions were carried out using the respective siRNAs for a specific knockout. RNA interference of ATR and CHEK1 was performed using Smartpool ATR and CHEK1 duplexes respectively, obtained from Dharmacon (Lafayette, Colo.). Nonspecific (scrambled) control duplexes (Dharmacon) were used for nonspecific siRNA treatment. The duplexes were reconstituted in 1×DNA-free RNA re-suspension buffer provided by Dharmacon and aliquoted according to the manufacturer's instructions. For transfection, the OSCC cell lines were seeded in 60 mm dishes or T25 flasks and transfected with siRNA duplexes using Lipofectamine 2000 (Invitrogen) according to the manufacturer's instructions. The individual siRNA duplex sequences are enumerated in Appendix B. The final working siRNA concentration achieved was between 90-100 nM. […]"}, "[4]": {"tested_on": "UPCI:SCC084", "assay": "Clonogenic cell survival assay", "method": "as §1"}, "[5]": {"details": "cell lines with an upregulated ATR-CHEK1 pathway including GM09607 (AT cells)"}, "[6]": {"details": "different doses of caffeine, compared to UPCI:SCC066, 105 and control NHOK"}}, "note": "“Also recorded” adds a separate entry of the source."}
{"smiles": "Cn1c(=O)c2c(ncn2C)n(C)c1=O", "note": "[caffeine]", "values": [{"measurement": "sensitivity to caffeine (cell cycle profile)", "setting": "[1]; cell lines with an intact G1 checkpoint and normal ATR-CHEK1 expression", "value": "did not demonstrate any sensitivity"}, {"measurement": "accumulation of cells in the S and G2M phases", "setting": "[1]; [5]", "value": "clearly reduced"}, {"measurement": "sub-G0 population (dead cells)", "setting": "[1]; [5]", "value": "increased"}, {"measurement": "reduction in colony survival", "setting": "[2]; 0.5 mM caffeine, UPCI:SCC104, absence of any DNA damaging agents", "value": "> 50", "unit": "%"}, {"measurement": "colony survival", "setting": "[2]; 1 mM caffeine, UPCI:SCC104", "value": "complete absence of survival"}, {"measurement": "sensitivity to caffeine (clonogenic cell survival)", "setting": "[2]; [6]", "value": "increased sensitivity"}, {"measurement": "G2M accumulation", "setting": "[3]", "value": "dose dependent reduction"}, {"measurement": "sub G0 peak (dead cells)", "setting": "[3]", "value": "increase"}, {"measurement": "reduction in colony survival", "setting": "[4]; 0.5 mM caffeine, UPCI:SCC084, absence of any DNA damaging agents", "value": "> 50", "unit": "%"}, {"measurement": "colony survival", "setting": "[4]; 1 mM caffeine, UPCI:SCC084", "value": "complete absence of survival; also recorded: Complete inhibition of colony formation"}, {"measurement": "sensitivity to caffeine (clonogenic cell survival)", "setting": "[4]; [6]", "value": "increased sensitivity"}]}
